Earlier results on two compounds are cited in patent US9636319B1, “Fumarate ester dosage forms” (priority 2015, dated 2017).

Counter-ions that a name gives are not always drawn.

One data set concerns Human plasma protein. To be noted: independent of concentration.
The test system of data set [1] is Nuclear factor (erythroid-derived 2)-like 2 (Nrf2) pathway. Conditions: in vitro and in vivo in animals and humans.

With `COC(=O)/C=C/C(=O)O` [MMF, monomethyl fumarate], the “Human plasma protein binding” value with Human plasma protein is 27-45%. For the same compound, the Tmax without meal (MMF in plasma, before the delay by a meal) is 2.0 h. The Tmax with meal (MMF in plasma, high-fat, high-calorie meal) is 5.5 h. For the same compound, the “median Tmax of MMF” value ([…]) was 2 to 2.5 h. Where the note is “dose range 120 mg to 360 mg”, the “dose dependence of Cmax and AUCoverall” value was “increased approximately dose proportionally”. The “reduction in the incidence of flushing” value (fed / postprandial state) is given as “approximately 25%”. Moreover, the “effect of a meal on AUC” value (high-fat, high-calorie meal) was “did not affect”. Further, under “high-fat, high-calorie meal, MMF in plasma”, the “decrease of Cmax by a meal” value is given as 40%. Moreover, where the note is “human, in vivo”, the “circulating MMF at 24 hours” value is “no circulating MMF is present at 24 hours in the majority of individuals” and the terminal half-life entry is reported as “approximately 1 hour”. Moreover, the “involvement of the cytochrome P450 (CYP) system in metabolism” value (metabolism through the tricarboxylic acid (TCA) cycle) was “no involvement”.
`COC(=O)/C=C/C(=O)OC` [DMF, dimethyl fumarate]: the “Nrf2 pathway activation” value in data set [1] is listed as “activate”. Where the note is “human, in vivo, po”, the “quantifiability in plasma following oral administration” value was “not quantifiable”.
